Values of other authors in patent publication US12458707B2, “Targeted delivery of immunoregulatory drugs” (The Brigham and Women's Hospital, Inc., priority 2014, dated 2025).

Tested on: NOD mice
Conditions: 2.5 mg/kg/day every other day

## C=CC[C@@H]1/C=C(\C)C[C@H](C)C[C@H](OC)[C@H]2O[C@@](O)(C(=O)C(=O)N3CCCC[C@H]3C(=O)O[C@H](/C(C)=C/[C@@H]3CC[C@@H](O)[C@H](OC)C3)[C@H](C)[C@@H](O)CC1=O)[C@H](C)C[C@@H]2OC [TAC, Tacrolimus]
  suppression of T1D: efficiently suppress T1D
